Experimental data published in patent US20230257393A1, “MACROMOLECULE-SUPPORTED THIENOAZEPINE COMPOUNDS, AND USES THEREOF” (BOLT BIOTHERAPEUTICS, INC., priority 2020, published 2023).

The molecules below were run against T1, human TLR7 (Homo sapiens, UniProt Q9NYK1) (assay: HEK Reporter Assay, HEK293 NFKB reporter cells expressing human TLR7). Details: Table 1a, read-out: HEK293 hTLR7 EC50.
T1 construct: host or cells: HEK293 reporter cells
T1 sequence (Q9NYK1 27-1049): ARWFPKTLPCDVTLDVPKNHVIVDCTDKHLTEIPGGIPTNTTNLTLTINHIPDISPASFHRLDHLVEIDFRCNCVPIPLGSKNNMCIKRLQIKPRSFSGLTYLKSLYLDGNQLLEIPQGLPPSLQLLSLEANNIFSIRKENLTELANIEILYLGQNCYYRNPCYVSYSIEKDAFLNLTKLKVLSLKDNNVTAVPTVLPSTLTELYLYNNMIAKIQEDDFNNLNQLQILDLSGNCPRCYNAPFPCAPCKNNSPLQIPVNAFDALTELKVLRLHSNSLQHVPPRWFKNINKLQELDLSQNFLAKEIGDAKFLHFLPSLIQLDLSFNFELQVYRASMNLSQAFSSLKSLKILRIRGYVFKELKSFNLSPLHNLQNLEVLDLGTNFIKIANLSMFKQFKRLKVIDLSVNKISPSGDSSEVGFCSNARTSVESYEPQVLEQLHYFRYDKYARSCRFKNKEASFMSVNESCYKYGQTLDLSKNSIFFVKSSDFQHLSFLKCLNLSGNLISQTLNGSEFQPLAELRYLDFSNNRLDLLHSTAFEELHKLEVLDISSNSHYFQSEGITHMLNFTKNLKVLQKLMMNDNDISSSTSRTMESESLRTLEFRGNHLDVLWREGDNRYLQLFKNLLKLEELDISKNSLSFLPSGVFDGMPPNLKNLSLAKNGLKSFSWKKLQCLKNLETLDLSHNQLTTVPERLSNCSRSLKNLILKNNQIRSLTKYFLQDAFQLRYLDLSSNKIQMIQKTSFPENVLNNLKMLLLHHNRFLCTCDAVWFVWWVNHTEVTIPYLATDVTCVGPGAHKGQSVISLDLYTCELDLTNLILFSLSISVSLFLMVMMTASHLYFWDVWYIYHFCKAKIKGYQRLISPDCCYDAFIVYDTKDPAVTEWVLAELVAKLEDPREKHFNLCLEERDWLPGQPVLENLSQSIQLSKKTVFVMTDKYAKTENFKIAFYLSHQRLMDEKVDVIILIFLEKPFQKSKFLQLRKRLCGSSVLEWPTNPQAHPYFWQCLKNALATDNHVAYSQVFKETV
Format: cell-based
Experimental: (§1) Each compound was synthesized, purified, and characterized by mass spectrometry and shown to have the mass indicated. Additional experimental procedures are found in the Examples. Activity against HEK293 NFKB reporter cells expressing human TLR7 or human TLR8 was measured according to Example 202.
(§2) HEK293 reporter cells expressing human TLR7 or human TLR8 were purchased from Invivogen and vendor protocols were followed for cellular propagation and experimentation. Briefly, cells were grown to 80-85% confluence at 5% CO2 in DMEM supplemented with 10% FBS, Zeocin, and Blasticidin. Cells were then seeded in 96-well flat plates at 4×10^4 cells/well with substrate containing HEK detection medium and immunostimulatory molecules. Activity was measured using a plate reader at 620-655 nm wavelength.

EC50 | SMILES
> 9 µM | CCCN(CC#CCNC(=O)OC(C)(C)C)C(=O)C1=Cc2sccc2N=C(N)C1 [TAZ-16, tert-butyl N-[4-[(5-amino-6H-thieno[3,2-b]azepine-7-carbonyl)-propyl-amino]but-2-ynyl]carbamate]
> 9 µM | CCCN(CCC)C(=O)C1=Cc2sccc2N=C(N)C1 [TAZ-2, 5-amino-N,N-dipropyl-6H-thieno[3,2-b]azepine-7-carboxamide]
> 9 µM | CCCN(CCC)C(=O)C1=Cc2sc(CCCCCN)cc2N=C(N)C1 [TAZ-14, 5-amino-2-(5-aminopentyl)-N,N-dipropyl-6H-thieno [3,2-b]azepine-7-carboxamide]
> 9 µM | CCCN(Cc1ccc(CN)cc1)C(=O)C1=Cc2sccc2N=C(N)C1 [TAZ-30, 5-amino-N-(4-(aminomethyl)benzyl)-N-propyl-6H-thieno[3,2-b]azepine-7-carboxamide]
> 9 µM | CCCN(CC#CCN)C(=O)C1=Cc2sccc2N=C(N)C1 [TAZ-17, 5-amino-N-(4-aminobut-2-ynyl)-N-propyl-6H-thieno[3,2-b]azepine-7-carboxamide]

SMILES | EC50
CCCN(CCC)C(=O)C1=Cc2sc(-c3cnn(COCC[Si](C)(C)C)c3)cc2N=C(N)C1 [TAZ-19, 5-amino-N,N-dipropyl-2-(1-((2-(trimethylsilyl)ethoxy)methyl)-1H-pyrazol-4-yl)-6H-thieno[3,2-b]azepine-7-carboxamide] | > 9 µM

Same assay, conditions: Table 1b, read-out: HEK293 hTLR7 EC50

EC50 | SMILES
> 9 µM | CCCN(C[C@H]1C[C@H](CN)C1)C(=O)C1=Cc2sccc2N=C(N)C1 [TAZ-69]
> 9 µM | CCCN(CCC)C(=O)C1=Cc2sc(CNC(=O)CN)cc2N=C(N)C1 [TAZ-92]
> 9 µM | CCCN(CCC)C(=O)C1=Cc2sc(COCCN)cc2N=C(N)C1 [TAZ-81]
> 9 µM | CCCN(Cc1ccc(CNC)cc1)C(=O)C1=Cc2sc(CCCCCN(C)C)cc2N=C(N)C1 [TAZ-65, 5-amino-2-[5-(dimethylamino)pentyl]-N-[[4-(methylaminomethyl)phenyl]methyl]-N-propyl-6H-thieno[3,2-b]azepine-7-carboxamide]

Same assay, conditions: Table 1c, read-out: HEK293 hTLR7 EC50

SMILES | EC50
CCCN(OCC)C(=O)C1=Cc2sc(CN3CCC(c4ccc(C(=O)OC)cc4)CC3)cc2N=C(N)C1 [TAZ-229] | ≥ 9 µM
CCCN(C[C@H]1CC[C@@H](CN)CC1)C(=O)C1=Cc2sccc2N=C(N)C1 [TAZ-118] | ≥ 9 µM
CCCN(OCC)C(=O)C1=Cc2sc(C#CC3CN(C(=O)OC(C)(C)C)C3)cc2N=C(N)C1 [TAZ-187] | ≥ 9 µM
CCCN(OCC)C(=O)C1=Cc2sc(CN3CCN(c4cccc(C(=O)OC(C)(C)C)c4)CC3)cc2N=C(N)C1 [TAZ-216] | ≥ 9 µM
CCCN(OCC)C(=O)C1=Cc2sc(C#CC3(O)CN(C(=O)OC(C)(C)C)C3)cc2N=C(N)C1 [TAZ-188] | ≥ 9 µM
CCCN(CCCNC(=O)OC1CCC1)C(=O)C1=Cc2sc(C#CC3CCN(C(=O)OC(C)(C)C)CC3)cc2N=C(N)C1 [TAZ-165] | ≥ 9 µM
CCCN(CCC)C(=O)C1=Cc2scc(C)c2N=C(N)C1 [TAZ-168] | ≥ 9 µM
CCCN(OCC)C(=O)C1=Cc2sc(CN3C[C@H]4CN(C(=O)OC(C)(C)C)C[C@@H]4C3)cc2N=C(N)C1 [TAZ-248] | ≥ 9 µM
CCCN(OCC)C(=O)C1=Cc2sc(CN3CC4(CCN4Cc4ccccc4)C3)cc2N=C(N)C1 [TAZ-246] | ≥ 9 µM
CCCN(OCC)C(=O)C1=Cc2sc(CN3C[C@@H]4CN(C(=O)OC(C)(C)C)C[C@@H]4C3)cc2N=C(N)C1 [TAZ-242] | ≥ 9 µM
CCCN(OCC)C(=O)C1=Cc2sc(CN3Cc4ccc(NC(=O)CCN)cc4C3)cc2N=C(N)C1 [TAZ-201] | ≥ 9 µM

Second part, the molecule after the results:

EC50 | SMILES
≥ 9 µM | CCCN(Cc1cnc(CN(C)C)c(C(F)(F)F)c1)C(=O)C1=Cc2sc(CCCCCN)cc2N=C(N)C1 [TAZ-127]
≥ 9 µM | CCCN(OCC)C(=O)C1=Cc2sc(CN3CC(CN)C3)cc2N=C(N)C1 [TAZ-211]
≥ 9 µM | CCCN(OCC)C(=O)C1=Cc2sc(CC3CCN(C(=O)OC(C)(C)C)CC3)cc2N=C(N)C1 [TAZ-179]
≥ 9 µM | CCCN(Cc1ncco1)C(=O)C1=Cc2sc(CC3CNC3)cc2N=C(N)C1 [TAZ-256]
≥ 9 µM | CCCN(OCC)C(=O)C1=Cc2sc(CN3C[C@H]4CNC[C@H]4C3)cc2N=C(N)C1 [TAZ-247]
≥ 9 µM | CCCN(OCC)C(=O)C1=Cc2sc(CN3CCC(N)CC3)cc2N=C(N)C1 [TAZ-243]

What follows are molecules tested against T2, human TLR8 (Homo sapiens, UniProt Q9NR97) (assay: HEK Reporter Assay, HEK293 NFKB reporter cells expressing human TLR8). Details: Table 1a, read-out: HEK293 hTLR8 EC50.
T2 construct: host or cells: HEK293 reporter cells
T2 sequence (Q9NR97 27-1041): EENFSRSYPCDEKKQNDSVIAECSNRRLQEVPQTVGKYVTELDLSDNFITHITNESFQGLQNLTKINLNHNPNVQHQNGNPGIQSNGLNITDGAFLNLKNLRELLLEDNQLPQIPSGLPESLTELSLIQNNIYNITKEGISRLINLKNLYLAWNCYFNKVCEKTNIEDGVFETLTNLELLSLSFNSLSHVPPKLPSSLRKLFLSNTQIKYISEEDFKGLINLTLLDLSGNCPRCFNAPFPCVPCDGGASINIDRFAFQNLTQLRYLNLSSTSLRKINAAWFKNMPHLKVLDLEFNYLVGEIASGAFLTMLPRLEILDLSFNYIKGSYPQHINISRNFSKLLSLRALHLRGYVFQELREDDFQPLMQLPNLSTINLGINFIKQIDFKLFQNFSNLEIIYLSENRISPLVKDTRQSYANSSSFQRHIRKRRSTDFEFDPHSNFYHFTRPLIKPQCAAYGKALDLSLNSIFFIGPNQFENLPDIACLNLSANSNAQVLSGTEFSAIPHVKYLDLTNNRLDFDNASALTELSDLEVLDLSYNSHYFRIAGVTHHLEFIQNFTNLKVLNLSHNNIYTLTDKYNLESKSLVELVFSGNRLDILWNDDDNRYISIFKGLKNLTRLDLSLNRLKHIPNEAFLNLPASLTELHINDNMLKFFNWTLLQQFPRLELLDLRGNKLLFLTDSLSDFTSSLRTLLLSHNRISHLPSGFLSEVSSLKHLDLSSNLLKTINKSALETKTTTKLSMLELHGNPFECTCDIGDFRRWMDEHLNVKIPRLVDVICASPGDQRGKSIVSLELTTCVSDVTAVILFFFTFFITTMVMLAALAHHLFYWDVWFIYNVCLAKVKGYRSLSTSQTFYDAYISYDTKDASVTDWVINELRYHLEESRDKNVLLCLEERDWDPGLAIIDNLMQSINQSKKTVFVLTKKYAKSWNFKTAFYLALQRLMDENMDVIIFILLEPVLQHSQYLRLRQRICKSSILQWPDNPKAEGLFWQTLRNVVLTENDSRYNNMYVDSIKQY
Format: cell-based
Experimental: as §1, §2

SMILES | EC50
CCCN(CCC)C(=O)C1=Cc2sc(-c3cnn(COCC[Si](C)(C)C)c3)cc2N=C(N)C1 [TAZ-19, 5-amino-N,N-dipropyl-2-(1-((2-(trimethylsilyl)ethoxy)methyl)-1H-pyrazol-4-yl)-6H-thieno[3,2-b]azepine-7-carboxamide] | > 9 µM
CCCN(CC#CCNC(=O)OC(C)(C)C)C(=O)C1=Cc2sc(Br)cc2N=C(N)C1 [TAZ-10, tert-butyl N-[4-[(5-amino-2-bromo-6H-thieno[3,2-b]azepine-7-carbonyl)-propyl-amino]but-2-ynyl]carbamate] | > 9 µM

Same assay, conditions: Table 1c, read-out: HEK293 hTLR8 EC50

SMILES | EC50
CCCN(C(=O)C1=Cc2sc(CCCCCNC(=O)OC(C)(C)C)cc2N=C(N)C1)C1CC1 [TAZ-123] | ≥ 9 µM
CCCN(OCC)C(=O)C1=Cc2sc(CN3CCC(c4ccc(C(=O)OC)cc4)CC3)cc2N=C(N)C1 [TAZ-229] | ≥ 9 µM
CCCN(CCCNC(=O)C(C)(C)C)C(=O)C1=Cc2sc(CCCCCN)cc2N=C(N)C1 [TAZ-142] | ≥ 9 µM
CCCN(Cc1ccc(CN(C)C)cc1C(F)(F)F)C(=O)C1=Cc2sc(CCCCCNC(=O)OC(C)(C)C)cc2N=C(N)C1 [TAZ-143] | ≥ 9 µM
CCCN(C[C@H]1CC[C@@H](CNC(=O)OC(C)(C)C)CC1)C(=O)C1=Cc2sccc2N=C(N)C1 [TAZ-119] | ≥ 9 µM
CCCN(CCCNC(=O)OC1CCC1)C(=O)C1=Cc2sc(CNC(=O)Cc3ccccc3)cc2N=C(N)C1 [TAZ-204] | 2.25 µM
CCCN(OCC)C(=O)C1=Cc2sc(C#CC3CCN(C(=O)OC(C)(C)C)CC3)cc2N=C(N)C1 [TAZ-173] | ≥ 9 µM
CCCN(CCCNC(=O)OC1CCC1)C(=O)C1=Cc2sc(CN3CCN(c4ccc(C(=O)OC)cc4)CC3)cc2N=C(N)C1 [TAZ-180] | ≥ 9 µM

The remaining lines, values ahead:

EC50 | SMILES
≥ 9 µM | CCCN(CCCNC(=O)OC1CCC1)C(=O)C1=Cc2sc(CC3CNC3)cc2N=C(N)C1 [TAZ-181]
≥ 9 µM | CCCN(CC1CC1)C(=O)C1=Cc2sc(CCCCCNC(=O)OC(C)(C)C)cc2N=C(N)C1 [TAZ-125]
≥ 9 µM | CCCN(CCCNC(=O)OC1CCC1)C(=O)C1=Cc2sc(CCC3CNC3)cc2N=C(N)C1 [TAZ-197]
≥ 9 µM | CCCN(CCCNC(=O)CC(C)(C)C)C(=O)C1=Cc2sc(CN3CCNCC3)cc2N=C(N)C1 [TAZ-139]
≥ 9 µM | CCCN(CCCNC(=O)OC1CCC1)C(=O)C1=Cc2sc(CN3CCNCC3)cc2N=C(N)C1 [TAZ-169]
≥ 9 µM | CCCN(CCCNC(=O)OC1CCC1)C(=O)C1=Cc2sc(CC3CCNCC3)cc2N=C(N)C1 [TAZ-185, cyclobutyl N-[3-[[5-amino-2-(4-piperidylmethyl)-6H-thieno[3,2-b]azepine-7-carbonyl]-propyl-amino]propyl]carbamate]
